Consider three molecules from ChEMBL document CHEMBL1201862, “PubChem BioAssay data set” (2004).

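Exposure lasted 48 hours, with cells grown in 96-well plates and compounds tested at five concentrations. At the GI50, growth is halved.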 Calls of active or inactive are those of the source. No stated cut-off is given here; in the data, active = GI50 up to about 1.1 µM and inactive = higher.

Some test systems named below: DMS-114; M19-MEL; DMS-273; XF498; RXF 631; SNB-78; HOP-18; DLD-1; KM-20L2.
Holding throughout (experiment): DTP human tumour cell line panel, 48 h

Regarding `CC1OC(CC(=O)O)CC2=C1C(=O)c1c(O)cccc1C2=O` (stereo not given) [NANAOMYCIN], the GI50 (usually the concentration that inhibits growth by half) in the experiment with DMS-114 was 0.129 µM (active); in the experiment with M19-MEL it was 0.0845 µM (active); in the experiment on DMS-273, 0.212 µM (active); in the experiment with XF498 it was 0.166 µM (active); in the experiment on RXF 631, 0.6 µM (active); in the experiment with SNB-78 it was 0.13 µM (active). The GI50 in the experiment with HOP-18 was 2.41 µM (inactive); in the experiment on DLD-1, 0.0192 µM (active); with KM-20L2, 0.225 µM (active).

For the molecule `O=S(=O)(C/C(=N\O)c1ccccc1)c1ccccc1`, the GI50 with M19-MEL was > 100 µM (inactive); in the experiment with DMS-273, > 100 µM (inactive); in the experiment with XF498 it was 59.3 µM (inactive); in the experiment on RXF 631 it was > 100 µM (inactive); with SNB-78, > 100 µM (inactive); in the experiment on HOP-18 it was > 100 µM (inactive). Also, the GI50 with DLD-1 and in the experiment on KM-20L2 was > 100 µM (inactive) throughout.

For the molecule `O=C(c1ccccc1)n1cc(/C=C/[N+](=O)[O-])c2ccccc21`, the GI50 with DMS-114 is 21.8 µM (inactive); with M19-MEL it was 20.8 µM (inactive); in the experiment with DMS-273 it was 25.1 µM (inactive); with XF498, 29.8 µM (inactive); with RXF 631, 17.3 µM (inactive); with SNB-78 it was 30.9 µM (inactive). The GI50 in the experiment with HOP-18 is > 100 µM (inactive); in the experiment on DLD-1, 18.4 µM (inactive).
